Laboratory results published in patent US7090790B2, “Chemiluminescent composition producing white light” (priority 2004, dated 2006).

How the values were obtained:
[1] = Intensity of white light, Experimental Example 2 (−25° F.); conditions: low temperature
Method: The oxalate solutions and the activator solutions prepared in Examples 1 and 2, and Comparative Examples 1 and 2 were mixed in a volume ratio of 3:1 to chemiluminescent compositions, respectively.
The procedure was repeated in the same manner as in Experimental Example 1, except that the temperature of the thermostat was set to −25° F.

[2] = Solubility in chloroform at 20° C., Formula 2 vs Formula 3; format: physicochemical; conditions: in 100 mL of chloroform at 20° C.

Question: Which “precipitation of the dye in the chemiluminescent composition” value [1] does the source give for `CCCCCCCCCCCCN1C(=O)c2cc(Cl)c3c4c(Cl)cc5c6c(cc(Cl)c(c7c(Cl)cc(c2c37)C1=O)c64)C(=O)N(CCCCCCCCCCCC)C5=O` [Dodecyl (Formula 3), N,N′-didodecyl-1,6,7,12-tetrachloroperylene-3,4,9,10-dicarboximide] here?
Answer: The value was “no precipitates were formed even at low temperature”.

Question: What about the “Solubility, 1,6,7,12-tetrahaloperylenedicarboximide of Formula 3 (X is Cl)” value [2] of the same molecule?
Answer: Its value is 65 g.

Question: For `CCCCCCN1C(=O)c2cc(Cl)c3c4c(Cl)cc5c6c(cc(Cl)c(c7c(Cl)cc(c2c37)C1=O)c64)C(=O)N(CCCCCC)C5=O` [Hexyl (Formula 3), N,N′-dihexyl-1,6,7,12-tetrachloroperylene-3,4,9,10-dicarboximide], which “Solubility, 1,6,7,12-tetrahaloperylenedicarboximide of Formula 3 (X is Cl)” value [2] is on record?
Answer: The value was 72 g.
